Source: ChEMBL document CHEMBL1201862, “PubChem BioAssay data set” (2004)
The source made the active and inactive calls.

What was measured:
[1] = non-specific 3'UTR reporter inhibition in Clone20-Shn3RL – cell-based, Renilla luciferase, cherry-picked, counter-screen for Shn3 inhibitor project, dose response (AID 624133); type: functional
[2] = reduced cellular PGC1a acetyl-lysine signal – cell-based, cherry-picked samples, dose response (AID 720514); type: functional;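 further: potency may reflect raised or lowered acetylation signal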
[3] = loss of viability in HepG2 cells – cell-based, CellTiter-Glo, cherry-picked, cytotoxicity control for Shn3 inhibitor project, dose response (AID 624134); type: functional
[4] = reduction of Shn3 3'UTR-driven luciferase in osteoblasts – cell-based, Clone20 osteoblasts, firefly luciferase, cherry-picked, dose response (AID 624132); type: functional;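 further: firefly luciferase luminescence from reporter carrying the Shn3 3'UTR in osteoblasts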
Paired box protein Pax-8 = Paired box protein Pax-8 (Homo sapiens, UniProt Q06710); assay: PAX8 transcriptional activity inhibition in RMG-I – RMG-I cells, luciferase, cherry-pick, dose response (AID 687027); type: functional, cell-based;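 further: luciferase reporter driven by Pax8 target thyroperoxidase promoter measured by SteadyGlo luminescence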
Chain of Paired box protein Pax-8 (Q06710 whole entry): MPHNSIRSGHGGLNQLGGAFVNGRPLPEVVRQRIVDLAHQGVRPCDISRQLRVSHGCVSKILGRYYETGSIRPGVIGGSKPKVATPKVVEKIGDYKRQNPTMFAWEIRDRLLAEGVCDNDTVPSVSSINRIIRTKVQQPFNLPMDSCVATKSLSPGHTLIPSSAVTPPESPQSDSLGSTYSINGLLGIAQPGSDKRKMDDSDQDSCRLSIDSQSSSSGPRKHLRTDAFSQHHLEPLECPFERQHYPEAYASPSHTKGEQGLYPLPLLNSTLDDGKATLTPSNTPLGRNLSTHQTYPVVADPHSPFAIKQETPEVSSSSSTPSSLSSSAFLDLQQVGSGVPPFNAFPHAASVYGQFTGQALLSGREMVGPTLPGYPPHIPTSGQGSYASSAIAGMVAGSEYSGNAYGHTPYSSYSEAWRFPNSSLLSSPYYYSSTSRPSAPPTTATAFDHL

[5] = general cell-killing toxicity readout – plate reader, dry powder samples, cytotoxicity control for PAX8 inhibitor project, dose response (AID 743021); type: functional, cell-based
Melanocortin receptor 4 = Melanocortin receptor 4 (Homo sapiens, UniProt P32245); type: functional, cell-based;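 further: Cell-based assay with luminescence read-out, confirmatory dose-response testing for agonist activity of biased ligands at MC4R; human U2OS cells with tagged receptor and beta-arrestin; potency of agonists that increase receptor coupling to beta-arrestin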
Chain of Melanocortin receptor 4 (P32245 whole entry): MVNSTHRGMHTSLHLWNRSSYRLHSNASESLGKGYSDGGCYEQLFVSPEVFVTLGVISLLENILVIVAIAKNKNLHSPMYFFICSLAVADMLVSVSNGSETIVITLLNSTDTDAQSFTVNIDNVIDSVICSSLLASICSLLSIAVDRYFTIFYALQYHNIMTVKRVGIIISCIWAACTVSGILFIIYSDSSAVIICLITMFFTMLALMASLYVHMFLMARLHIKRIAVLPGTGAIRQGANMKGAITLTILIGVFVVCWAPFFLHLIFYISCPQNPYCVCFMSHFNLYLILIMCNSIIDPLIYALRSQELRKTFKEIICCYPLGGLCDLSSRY

[6] = biological target: Adenosylmethionine-8-amino-7-oxononanoate aminotransferase (Mycobacterium tuberculosis, UniProt P9WQ81); assay: Mycobacterium tuberculosis BioA enzyme inhibitor Measured in Biochemical System Using Plate Reader - 2163-02_Inhibitor_Dose_CherryPick_Activity.; type: functional, Mycobacterium tuberculosis UT205
Chain of Adenosylmethionine-8-amino-7-oxononanoate aminotransferase (P9WQ81 whole entry): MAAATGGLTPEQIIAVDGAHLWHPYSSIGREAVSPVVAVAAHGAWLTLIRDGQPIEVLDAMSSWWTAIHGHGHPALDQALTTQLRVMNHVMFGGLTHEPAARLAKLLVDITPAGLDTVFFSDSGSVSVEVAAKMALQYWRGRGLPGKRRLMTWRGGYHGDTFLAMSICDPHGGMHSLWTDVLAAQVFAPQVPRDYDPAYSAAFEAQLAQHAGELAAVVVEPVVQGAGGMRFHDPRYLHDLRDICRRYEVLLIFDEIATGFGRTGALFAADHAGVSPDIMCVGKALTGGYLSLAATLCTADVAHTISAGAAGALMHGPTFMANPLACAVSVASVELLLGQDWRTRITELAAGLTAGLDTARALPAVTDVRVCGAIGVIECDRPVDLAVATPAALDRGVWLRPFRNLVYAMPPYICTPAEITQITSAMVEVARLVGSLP

[7] = biological target: Fructose-bisphosphate aldolase (Mycobacterium tuberculosis, UniProt P9WQA3); assay: Fluorescence-based biochemical high throughput dose response assay for inhibitors of the fructose-bisphosphate aldolase (FBA) of M. tuberculosis.; type: functional
Chain of Fructose-bisphosphate aldolase (P9WQA3 whole entry): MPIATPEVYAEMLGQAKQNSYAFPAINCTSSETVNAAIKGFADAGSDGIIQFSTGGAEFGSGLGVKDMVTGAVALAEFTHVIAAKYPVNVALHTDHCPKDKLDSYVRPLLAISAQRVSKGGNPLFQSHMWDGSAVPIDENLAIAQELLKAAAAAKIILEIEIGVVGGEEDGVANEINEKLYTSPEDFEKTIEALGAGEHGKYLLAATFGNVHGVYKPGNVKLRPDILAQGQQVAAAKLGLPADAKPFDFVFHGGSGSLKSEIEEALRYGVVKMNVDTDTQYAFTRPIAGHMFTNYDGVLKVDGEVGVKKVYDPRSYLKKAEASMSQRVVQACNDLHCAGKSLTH

[8] = viability loss in HepG2 hepatoma cells – cell-based, cherry-picks, set 5, cytotoxicity control, dose response (AID 1053118); type: functional
[9] = viability loss in A549 lung cancer cells – cell-based, cherry-picks, […], cytotoxicity control, dose response (AID 1053119); type: functional
[10] = viability loss in HEK293 kidney cells – cell-based, cherry-picks, set 5, cytotoxicity control, dose response (AID 1053117); type: functional
[11] = biological target: Aryl hydrocarbon receptor (Homo sapiens, UniProt P35869); settings: Potency;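 further: confirmatory quantitative high-throughput screen measuring activation of the AhR signaling pathway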
Chain of Aryl hydrocarbon receptor (P35869 whole entry): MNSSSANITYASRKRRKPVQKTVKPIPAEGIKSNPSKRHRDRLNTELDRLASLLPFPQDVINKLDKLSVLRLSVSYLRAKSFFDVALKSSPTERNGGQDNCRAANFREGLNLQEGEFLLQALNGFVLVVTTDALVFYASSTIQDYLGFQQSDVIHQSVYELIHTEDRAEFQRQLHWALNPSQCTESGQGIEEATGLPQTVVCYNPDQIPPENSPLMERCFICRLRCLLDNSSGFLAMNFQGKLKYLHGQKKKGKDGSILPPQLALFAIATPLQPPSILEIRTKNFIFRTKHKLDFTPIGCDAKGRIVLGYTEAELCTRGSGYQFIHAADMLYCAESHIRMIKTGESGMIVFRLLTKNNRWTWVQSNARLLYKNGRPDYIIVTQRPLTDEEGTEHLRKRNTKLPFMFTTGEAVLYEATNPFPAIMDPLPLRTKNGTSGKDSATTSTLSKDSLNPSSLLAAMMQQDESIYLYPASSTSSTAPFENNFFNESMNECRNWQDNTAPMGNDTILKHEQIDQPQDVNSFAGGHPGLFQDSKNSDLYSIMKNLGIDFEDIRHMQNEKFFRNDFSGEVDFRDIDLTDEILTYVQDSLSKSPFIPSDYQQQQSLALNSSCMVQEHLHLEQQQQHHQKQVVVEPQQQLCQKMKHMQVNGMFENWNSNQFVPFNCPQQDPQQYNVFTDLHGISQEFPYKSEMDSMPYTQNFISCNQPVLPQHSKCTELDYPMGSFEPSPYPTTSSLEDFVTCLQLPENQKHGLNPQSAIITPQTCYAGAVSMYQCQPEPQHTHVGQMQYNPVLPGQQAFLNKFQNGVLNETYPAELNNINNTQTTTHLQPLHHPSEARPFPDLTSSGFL

CCN1CCN(Cc2ccc(NC(=O)c3cc(NC(=O)c4cncc(-c5ccc(C#N)cc5)c4)cc(OC)c3)cc2C(F)(F)F)CC1
AC50 [1]: 7.18 µM (active)
AC50 [2]: 6.66 µM (active)
AC50 [3]: 8.15 µM (active)
AC50 [4]: 3.36 µM (active)
AC50 (Paired box protein Pax-8): 7.76 µM (active)
AC50 [5]: 48.2 µM (active)
EC50 (Melanocortin receptor 4): > 89.2 µM (inactive)

O=C(Cc1ccccc1)N1CC[C@@H]2[C@H]1c1cc(Br)ccc1N[C@@H]2CO
AC50 [6]: 2.74 µM (active)

COc1ccc(OC)c2c1C(=O)CC2C (centres undefined)
IC50 [7]: 2.23 µM (active)

CCNC(=O)[C@H]1[C@H](CO)[C@H]2Cn3c(ccc(-c4cccc(F)c4)c3=O)[C@H]2N1C(=O)Cc1cccnc1
AC50 [6]: 17 µM (active)

CO[C@H]1CN(C)C(=O)c2ccc(NC(=O)c3ccc(-c4ccccc4)cc3)cc2OC[C@H](C)NC[C@@H]1C
AC50 [2]: 31.9 µM (active)
AC50 [8]: > 52 µM (inactive)
AC50 [9]: > 52 µM (inactive)
AC50 [10]: > 52 µM (inactive)

CO[C@H]1CN(C)C(=O)c2cc(NC(=O)Nc3cc(Cl)cc(Cl)c3)ccc2OC[C@H](C)NC[C@H]1C
AC50 [8]: 16.6 µM (active)
AC50 [9]: > 52 µM (inactive)
AC50 [10]: 34.3 µM (active)

O=C(Nc1ccccc1)Nc1cnns1 [THIDIAZURON]
AC50 [11]: 50.1 µM (inconclusive)

O=P(OCC(Br)CBr)(OCC(Br)CBr)OCC(Br)CBr (centres undefined) [TRIS(2,3-DIBROMOPROPYL)PHOSPHATE]
AC50 [11]: 56.2 µM (inconclusive)
